# Measurements: ChEMBL document CHEMBL1156354, “Anti-AIDS agents. 48.(1) Anti-HIV activity of moronic acid derivatives and the new melliferone-related triterpenoid isolated from Brazilian propolis” (J Nat Prod, 2001)
# How the values were obtained:
# H9 = assay: Cytotoxicity against human H9 cells; format: cell-based
# [1] = tested on: Human immunodeficiency virus 1; assay: Antiviral activity against HIV1 3B infected in human H9 cells assessed as inhibition of viral p24 antigen levels after 4 days by ELISA; format: functional, organism-based
# [2] = Therapeutic index, ratio of IC50 for human H9 cells to EC50 of HIV1 3B; format: cell-based; conditions: for selectivity ratio: H9 cells, HIV-1 3B, read-out: Ratio IC50/EC50; for Ratio IC50/EC50: h9
# [3] = Human immunodeficiency virus 1, 3B, H9, 96 h, read-out: EC50
"EC50 [1, 3]",EC50 ([1]; h9),Compound,IC50 (H9),selectivity ratio [2],Ratio IC50/EC50 [2]
,Not Active,CC1(C)CC[C@@]23CC[C@]4(C)[C@@](C=C[C@@H]5[C@@]6(C)CCC(=O)C(C)(C)[C@@H]6CC[C@]54C)(OC2=O)[C@@H]3C1 [MELLIFERONE],0.205 µg/mL,,Not Active
< 0.1 µg/mL,,CC1(C)C=C2[C@H]3CC[C@@H]4[C@@]5(C)CCC(=O)C(C)(C)[C@@H]5CC[C@@]4(C)[C@]3(C)CC[C@@]2(C(=O)O)CC1 [MORONIC ACID],18.6 µg/mL,> 186,
,Not Active,COc1cc(C=O)ccc1O [VANILLIN],> 100 µg/mL,,Not Active
0.00289 µg/mL,,Cc1cn([C@H]2C[C@H](N=[N+]=[N-])[C@@H](CO)O2)c(=O)[nH]c1=O [ZIDOVUDINE],,,

# Further lines, the compound ahead of its results:
Compound,"EC50 [1, 3]",EC50 ([1]; h9),IC50 (H9),selectivity ratio [2],Ratio IC50/EC50 [2]
CC1(C)C=C2[C@H]3CC[C@@H]4[C@@]5(C)CC[C@H](OC(=O)CC(C)(C)C(=O)O)C(C)(C)[C@@H]5CC[C@@]4(C)[C@]3(C)CC[C@@]2(C(=O)O)CC1,1 µg/mL,,18.1 µg/mL,18,
CCC(=O)c1ccc(O)c(OC)c1,,Not Active,18.8 µg/mL,,Not Active
C=C(COC(C)=O)[C@H]1Cc2cc(C(C)=O)ccc2O1,,Not Active,2.07 µg/mL,,Not Active
"COc1ccc(/C=C/C=O)cc1OC [3,4-DIMETHOXY CINNAMALDEHYDE]",2.19 µg/mL,,18.9 µg/mL,8.62,
C/C(=C/CC[C@@H](C)[C@H]1CC[C@@]2(C)C3=C(CC[C@]12C)[C@@]1(C)CCC(=O)C(C)(C)[C@@H]1CC3)C(=O)O [ANWUWEIZONIC ACID],,Not Active,2.14 µg/mL,,Not Active
C=C(C)[C@@H]1CC[C@]2(C(=O)O)CC[C@]3(C)[C@H](CC[C@@H]4[C@@]5(C)CCC(=O)C(C)(C)[C@@H]5CC[C@]43C)[C@@H]12 [BETUNOLIC ACID],0.22 µg/mL,,1.8 µg/mL,8,
CC1(C)C=C2[C@H]3CC[C@@H]4[C@@]5(C)CC[C@H](O)C(C)(C)[C@@H]5CC[C@@]4(C)[C@]3(C)CC[C@@]2(C(=O)O)CC1 [MOROLIC ACID],2.7 µg/mL,,22.1 µg/mL,8.17,
